US20040126421A1, “Liposomal system and method of using same” (priority 2002, published 2004)

Test system: CD8+ T cells recognizing the ova peptide (SIINFEKL)
Assay: IFN-g ELISPOT of lymph node CD8+ T cells after vaccination
Format: in vivo, C57BL/6 mice
Procedure: In order to test the potency of the Ubiquisome vaccine, the liposomes of example 1 were used as a vaccine. For vaccination, mice received a single administration of […] of liposomes containing 2.5 mg POPE and approximately […] peptide antigen. The vaccine was injected bilaterally in mouse tibealis anterior muscle ([…] per muscle).
For ELISPOT analysis, mice were sacrificed 5 days following vaccination and inguinal and popliteal lymph nodes were harvested. CD8+ T cells from lymph nodes were isolated using the MACS magnetic cell separation technique. 1×10^5 CD8+ T cells were plated per well in 96 well IP plates. Ova (SIINFEKL, Seq ID No. 3) or irrelevant peptide-pulsed EL4 lymphoma cells were irradiated and plated over CD8+ T cells at density of 10×10^4 cells/well. Following 20 h incubation and assay development, IFN-g secreting cells were visualized as brown spots on the IP membrane.

monophosphoryl Lipid A [MPL]
CD8+ T cell response with increasing amounts of MPL in the bilayer: proportionally stronger CD8+ T cell responses
